How the values were obtained:
Type in all cases: cell-based
MDA-MB-231 (breast) = assay: In vitro cell proliferation assay (SRB), MDA-MB-231; conditions: Homo sapiens, SRB method, 96 hours, read-out: Inhibition of cell growth (IC50, μM) MDA-MB-231
Description: (§1) Cancer cell lines to determine the effect of 5, 6, or 7-substituted-3-(hetero)arylisoquinolinamine compounds were obtained from the following sources: Human MDA-MB-231 (breast), PC3 (prostate), HCT-15 (colon), HCT116 (colon), OVCAR-3 (ovary), Caki-1 (kidney), PANC-1 (pancreas), SNB-19 (glioblastoma) and SK-MEL-28 (melanoma) from the American Type Culture Collection (ATCC) (Manassas, Va.). PC3, OVCAR-3, SK-MEL-28 and SNB-19 were grown in RPMI1640 medium (Invitrogen, Carlsbad, Calif.) supplemented with 10% fetal bovine serum (“FBS”), 1 mM sodium pyruvate, 10 mM HEPES and 100 U/ml penicillin and 100 μg/ml streptomycin (“P/S”). MDA-MB-231, Caki-1, HCT-15 (colon) and PANC-1 cells were maintained in Dulbecco's modified Eagle's medium (“DMEM”, Invitrogen) supplemented with 10% FBS, P/S and 10 mM HEPES. HCT116 cells were maintained in DMEM supplemented with 10% FBS, P/S and 10 mM HEPES for in vitro cell proliferation assay and in RPMI1640 medium supplemented with 10% FBS, 1 mM sodium pyruvate, 10 mM HEPES and P/S for in vitro cell cycle analysis. All cells were incubated at 37° C. under humidified 5% CO2.
(§2) The growth inhibition of the 5, 6, or 7-substituted-3-(hetero)arylisoquinolinamine derivatives against a variety of human tumor cells was evaluated to study the relative importance of particular substituent groups on the compounds. The 5, 6, or 7-substituted-3-(hetero)arylisoquinolinamine derivatives, prepared as described above, were tested with DMSO as a control.
(§3) The growth inhibition assay of representative 5, 6, or 7-substituted-3-(hetero)arylisoquinolinamine derivatives against human tumor cell lines was performed using the Sulforhodamine B (“SRB”) method (Skehan et al., J. National Cancer Institute, 82: 1107-1112 (1990)). Briefly, exponentially growing tumor cells were seeded into a 96-well plate at a density of 2-3×10^3 cells/well and treated with 5, 6, or 7-substituted-3-(hetero)arylisoquinolinamine compounds the next day. Triplicate wells were used for each treatment. The cells were incubated with the various compounds for 96 hours at 37° C. in a humidified 5% CO2 atmosphere. After 96-hour incubation, cells were fixed with 10% trichloroacetic acid (“TCA”), incubated for 1 hour at 4° C., and washed 3 times with tap water. Subsequently, cells were stained with 0.4% sulforhodamine B in 1% acetic acid for 30 minutes, washed 4 times with 1% acetic acid, and air-dried again. After 5 minutes agitation in 10 mM Tris solution, the absorbance of each well was measured at 530 nm using Benchmark Plus Microplate reader (Bio-Rad Laboratories, Hercules, Calif.).
(§4) To translate the OD530 values into the number of live cells in each well, the OD530 values were compared to those on standard OD530-versus-cell number curves generated for each cell line. The percent survival was calculated using the formula: % Survival=live cell number [test]/live cell number [control]×100
(§5) The IC50 values were calculated by non-linear regression analysis.

PANC-1 (pancreas) = assay: In vitro cell proliferation assay (SRB), PANC-1; conditions: Homo sapiens, SRB method, 96 hours, read-out: Inhibition of cell growth (IC50, μM) PANC-1
Description: as §1, §2, §3, §4, §5

HCT116 (colon) = assay: In vitro cell proliferation assay (SRB), HCT116; conditions: Homo sapiens, HCT-116; SRB method, 96 hours; Table 3; read-out: Inhibition of cell growth (IC50, μM) HCT116
Description: as §1, §2, §3, §4, §5

PC3 (prostate) = assay: In vitro cell proliferation assay (SRB), PC3; conditions: Homo sapiens; SRB method, 96 hours; read-out: Inhibition of cell growth (IC50, μM) PC3
Description: as §1, §2, §3, §4, §5

OVCAR-3 (ovary) = assay: In vitro cell proliferation assay (SRB), OVCAR3; conditions: Homo sapiens, SRB method, 96 hours, read-out: Inhibition of cell growth (IC50, μM) OVCAR3
Description: as §1, §2, §3, §4, §5

SK-MEL-28 (melanoma) = assay: In vitro cell proliferation assay (SRB), SK-MEL-28; conditions: Homo sapiens, SRB method, 96 hours, read-out: Inhibition of cell growth (IC50, μM) SK-MEL-28
Description: as §1, §2, §3, §4, §5

Caki-1 (kidney) = assay: In vitro cell proliferation assay (SRB), Caki-1; conditions: Homo sapiens, SRB method, 96 hours, read-out: Inhibition of cell growth (IC50, μM) Caki-1
Description: as §1, §2, §3, §4, §5

SNB-19 (glioblastoma) = assay: In vitro cell proliferation assay (SRB), SNB19; conditions: Homo sapiens, SRB method, 96 hours, read-out: Inhibition of cell growth (IC50, μM) SNB19
Description: as §1, §2, §3, §4, §5

human cancer cell lines = assay: Growth inhibition against the panel of human tumor cell lines (SRB), overall statements; conditions: Table 3 cell lines
Description: as §1, §2, §3, §4, §5
Using QSAR and medicinal chemistry techniques, a large number of compounds, including the compounds shown in Table 1-2 above, were synthesized. The synthesized compounds were screened against at least four cancer cell lines, PANC-1, MDA-MB-231, HCT116 and Caki-1, at approximately 1 μM concentration. Compounds showing activity in at least one of these cell lines were selected for further screening. From these compounds, thirty compounds were selected for further evaluation as broad-spectrum anti-proliferative agents as shown in the following Table 3.

Question: With `COc1ccccc1-c1cc2ccc(C)cc2c(N)n1` [Compound 37, 3-(2-Methoxyphenyl)-7-methylisoquinolin-1-amine] as the compound, how does the IC50 (MDA-MB-231 (breast)) read?
Answer: 0.32 µM

Question: What about the IC50 (PANC-1 (pancreas)) of the same compound?
Answer: 0.68 µM

Question: And the IC50 (HCT116 (colon))?
Answer: 0.47 µM

Question: What about the IC50 (PC3 (prostate)) of the same compound?
Answer: 1.01 µM

Question: And the IC50 (OVCAR-3 (ovary))?
Answer: 0.51 µM

Question: What about the IC50 (SK-MEL-28 (melanoma)) of the same compound?
Answer: 0.67 µM

Question: What about the IC50 (Caki-1 (kidney)) of the same compound?
Answer: 0.22 µM

Question: And the IC50 (SNB-19 (glioblastoma))?
Answer: 0.78 µM

Question: What does the source list for `COc1ccc(-c2cc3cc(C)ccc3c(N)n2)c(C)c1` [Compound 31, 3-(4-Methoxy-2-methylphenyl)-6-methylisoquinolin-1-amine]?
Answer: IC50 (MDA-MB-231 (breast)): 0.15 µM; IC50 (PANC-1 (pancreas)): 0.24 µM; IC50 (HCT116 (colon)): 0.17 µM; IC50 (PC3 (prostate)): 0.25 µM; IC50 (OVCAR-3 (ovary)): 0.17 µM; IC50 (SK-MEL-28 (melanoma)): 0.29 µM; IC50 (Caki-1 (kidney)): 0.12 µM; IC50 (SNB-19 (glioblastoma)): 0.28 µM; activity in growth inhibition of human cancer cell compared to Compound 23 (human cancer cell lines): equal or better activity

Question: How did the IC50 (MDA-MB-231 (breast)) turn out when `Cc1ccc2cc(-c3ccccc3C)nc(N)c2c1` [Compound 48, 7-Methyl-3-o-tolylisoquinolin-1-amine] was run?
Answer: 0.075 µM

Question: What about the IC50 (PANC-1 (pancreas)) of the same compound?
Answer: 0.2 µM

Question: And the IC50 (HCT116 (colon))?
Answer: 0.12 µM

Question: What about the IC50 (PC3 (prostate)) of the same compound?
Answer: 0.26 µM

Question: What about the IC50 (OVCAR-3 (ovary)) of the same compound?
Answer: 0.1 µM

Question: And the IC50 (SK-MEL-28 (melanoma))?
Answer: 0.18 µM

Question: What about the IC50 (Caki-1 (kidney)) of the same compound?
Answer: 0.14 µM

Question: What about the IC50 (SNB-19 (glioblastoma)) of the same compound?
Answer: 0.16 µM

Question: And the “activity in growth inhibition of human cancer cell compared to Compound 23” value (human cancer cell lines)?
Answer: equal or better activity

Question: What does the source list for `COc1ccc(-c2cc3cc(C)ccc3c(N)n2)cc1OC` [Compound 27, 3-(3,4-Dimethoxyphenyl)-6-methylisoquinolin-1-amine]?
Answer: IC50 (MDA-MB-231 (breast)): 0.66 µM; IC50 (PANC-1 (pancreas)): 1.75 µM; IC50 (HCT116 (colon)): 0.85 µM; IC50 (PC3 (prostate)): 2.69 µM; IC50 (OVCAR-3 (ovary)): 0.57 µM; IC50 (SK-MEL-28 (melanoma)): 1.41 µM; IC50 (Caki-1 (kidney)): 0.51 µM; IC50 (SNB-19 (glioblastoma)): 2.15 µM

Question: For `COc1cc(OC)cc(-c2cc3ccc(N(C)C)cc3c(N)n2)c1.Cl` [Compound 16, 3-(3,5-Dimethoxyphenyl)-N^7,N^7-dimethylisoquinoline-1,7-diamine hydrochloride], which IC50 (MDA-MB-231 (breast)) is on record?
Answer: 0.027 µM

Question: And the IC50 (PANC-1 (pancreas))?
Answer: 0.026 µM

Question: What about the IC50 (HCT116 (colon)) of the same compound?
Answer: 0.029 µM

Question: And the IC50 (PC3 (prostate))?
Answer: 0.048 µM

Question: And the IC50 (OVCAR-3 (ovary))?
Answer: 0.025 µM

Question: What about the IC50 (SK-MEL-28 (melanoma)) of the same compound?
Answer: 0.045 µM

Question: And the IC50 (Caki-1 (kidney))?
Answer: 0.038 µM

Question: And the IC50 (SNB-19 (glioblastoma))?
Answer: 0.057 µM

Question: And the “activity in growth inhibition of human cancer cell compared to Compound 23” value (human cancer cell lines)?
Answer: equal or better activity

Question: What does the source list for `Cc1ccc2cc(-c3ccccc3F)nc(N)c2c1` [Compound 41, 3-(2-Fluorophenyl)-7-methylisoquinolin-1-amine]?
Answer: IC50 (MDA-MB-231 (breast)): 0.72 µM; IC50 (PANC-1 (pancreas)): 2.14 µM; IC50 (HCT116 (colon)): 1.22 µM; IC50 (PC3 (prostate)): 2.76 µM; IC50 (OVCAR-3 (ovary)): 0.91 µM; IC50 (SK-MEL-28 (melanoma)): 1.62 µM; IC50 (Caki-1 (kidney)): 0.59 µM; IC50 (SNB-19 (glioblastoma)): 2.2 µM

Question: For `COc1cc2cc(-c3c(C)cccc3C)nc(N)c2cc1OC` [Compound 53, 6,7-Dimethoxy-3-(2,6-dimethylphenyl)isoquinolin-1-amine], which IC50 (MDA-MB-231 (breast)) is on record?
Answer: 0.25 µM

Question: What about the IC50 (PANC-1 (pancreas)) of the same compound?
Answer: 0.54 µM

Question: What about the IC50 (HCT116 (colon)) of the same compound?
Answer: 0.79 µM

Question: What about the IC50 (PC3 (prostate)) of the same compound?
Answer: 0.68 µM

Question: And the IC50 (OVCAR-3 (ovary))?
Answer: 0.16 µM

Question: What about the IC50 (SK-MEL-28 (melanoma)) of the same compound?
Answer: 0.63 µM

Question: And the IC50 (Caki-1 (kidney))?
Answer: 0.53 µM

Question: What about the IC50 (SNB-19 (glioblastoma)) of the same compound?
Answer: 0.42 µM

Question: Which IC50 (MDA-MB-231 (breast)) does the source give for `COc1cc2cc(-c3ccccc3C)nc(N)c2cc1OC` [Compound 56, 6,7-Dimethoxy-3-o-tolylisoquinolin-1-amine] here?
Answer: 0.54 µM

Question: What about the IC50 (PANC-1 (pancreas)) of the same compound?
Answer: 0.83 µM

Question: What about the IC50 (HCT116 (colon)) of the same compound?
Answer: 0.78 µM

Question: What about the IC50 (PC3 (prostate)) of the same compound?
Answer: 1.25 µM

Question: And the IC50 (OVCAR-3 (ovary))?
Answer: 0.38 µM

Question: What about the IC50 (SK-MEL-28 (melanoma)) of the same compound?
Answer: 0.91 µM

Question: What about the IC50 (Caki-1 (kidney)) of the same compound?
Answer: 0.67 µM

Question: What about the IC50 (SNB-19 (glioblastoma)) of the same compound?
Answer: 0.56 µM

Question: Which IC50 (MDA-MB-231 (breast)) does the source give for `Cc1cccc(-c2cc3cc(C)ccc3c(N)n2)c1` [Compound 35, 6-Methyl-3-m-tolylisoquinolin-1-amine] here?
Answer: 0.57 µM

Question: And the IC50 (PANC-1 (pancreas))?
Answer: 1.28 µM

Question: What about the IC50 (HCT116 (colon)) of the same compound?
Answer: 0.59 µM

Question: And the IC50 (PC3 (prostate))?
Answer: 1.19 µM

Question: What about the IC50 (OVCAR-3 (ovary)) of the same compound?
Answer: 0.47 µM

Question: And the IC50 (SK-MEL-28 (melanoma))?
Answer: 0.72 µM

Question: What about the IC50 (Caki-1 (kidney)) of the same compound?
Answer: 0.69 µM

Question: What about the IC50 (SNB-19 (glioblastoma)) of the same compound?
Answer: 0.75 µM

From patent publication US8314123B2, “5, 6, or 7-substituted -3-(hetero) arylisoquinolinamine derivatives and therapeutic use thereof” (Rexahn Pharmaceuticals, Inc., priority 2006, dated 2012)
